Results as given in US20100256014A1, “NOVEL AS160-LIKE PROTEIN, TEST SYSTEMS, METHODS AND USES INVOLVING IT FOR THE IDENTIFICATION OF DIABETES TYPE 2 THERAPEUTICS” (priority 2007, published 2010).

Columns and labels:
Format in all cases: cell-based, rat
AKT (Ser 473) [1] = assay: Western blot of AKT phosphorylation (Ser 473)
Experimental: For Western blot analysis proteins were separated on SDS-PAGE gels (4-12% resolving gel, Invitrogen), transferred to PVDF membranes (Roche) and blocked with Roti-Block® (Roth) for 1 hour. Membranes were incubated with primary antibodies overnight. The anti-AS160 antibody was from Upstate. Membranes were washed in TBST and incubated with the appropriate secondary horseradish peroxidase conjugated antibody (Santa Cruz). Immunoreactive bands were visualized with LumiLight (Roche) and detected with Lumi-lmager (Böhringer Ingelheim).
In order to examine tetracycline- and insulin-dependent expression of isoform2 of AS160 protein in L6-GLUT4myc cells containing AS160-like, a western blot analysis was performed. The expression of AS160-like protein was induced with 1 μg/ml doxycyclin for 48 hours as described above. Subsequently, the cells were stimulated with insulin (5 nM to 50 nM; Sanofi-Aventis) for 20 minutes. Cell extracts were prepared, separated via SDS-PAGE and transferred to a PVDF membrane as described above.
The AKT inhibitor Calb. had no effect on the phosphorylation of AKT (Ser 473) (FIG. 11A). […] Phosphorylation of AKT on Ser 473 was detected with a phospho-specific antibody from Biosource (Cat No.: 44-621G).

L6-GLUT4myc cells [2] = assay: Uptake of 2-deoxyglucose in L6-GLUT4myc cells with tet-inducible isoform2 of AS160
Experimental: For all examples […]T4myc cells containing isoform2 of AS160 were grown in MEMα (PAN) supplemented with 10% fetal calf serum (FCS) (PAA, tet-free), 2 μg/ml blasticidin (Calbiochem), 0.5 μg/ml puromycin (InvivoGen), 200 μg/ml hygromycin (Invitrogen). Expression of isoform2 of AS160 was induced with 1 μg/ml doxycyclin (Sigma). L6-wildtype (wt) (ATCC: CRL-1458) cells were grown in MEMα+GlutaMax (Gibco) supplemented with 10% FCS (PAA, tet-free) and 1% penicillin/streptomycin (PAA). […]T4myc cells were grown in MEMα+GlutaMax (Gibco) supplemented with 10% FCS (PAA, tet-free), 1% penicillin/streptomycin (PAA) and 2 μg/ml blasticidin (Calbiochem). All cells were grown at 37° C. and 5% CO2. […]T4myc cells containing isoform2 of AS160 were incubated in starve medium (MEMα) 3-4 hours prior to each experiment. To examine glucose uptake of the cells, the respective cells were plated in 96 well Cytostar-T scintillating microplates (Amersham). After 48 hours cells were serum-starved (3-4 hours) and treated with inhibitors as indicated. Uptake of 2-deoxyglucose (0.01 MBq per well, Amersham) was performed as already described (Voss et al., 2005). Nonspecific uptake was determined in the presence of 40 μM cytochalasin B (Calbiochem). This value was subtracted from all other values. Measurement occurred in a Wallac Microbeta counter (Perkin Elmer). Uptake of 2-deoxyglucose is presented as counts per […] (cpm).

L6-GLUT4myc cells [3] = assay: Tetracycline-inducible GFP expression (functionality of the tet-repressor); conditions: pCDNA5/TO-GFP; addition of doxycyclin; data not shown
Experimental: L6-GLUT4myc cells containing AS160-like were grown in MEMα (PAN) supplemented with 10% fetal calf serum (FCS) (PAA, tet-free), 2 μg/ml blasticidin (Calbiochem), 0.5 μg/ml puromycin (InvivoGen), 200 μg/ml hygromycin (Invitrogen). Functionality of the tet-repressor was controlled with a tetracycline-inducible GFP expression plasmid (pCDNA5/TO-GFP). In the absence of tetracycline (or doxycyclin) only a small number of cells express GFP. Addition of doxycyclin increases the number of GFP expressing cells about 10 fold (data not shown).

AS160 (Thr 642) = assay: In-cell western, phospho-AS160
Text: (§1) To study phosphorylation of AKT and AS160 the cells described in Example 2 were used. AS160 is activated by phosphorylation on critical motifs (RXRXXS/T). Known phospho-sites in AS160 are Ser 570, Ser 588, Thr 642 and Thr 751 (Sano et al., 2003). One of the kinases responsible for the activation of AS160 is AKT (Kane et al., 2002). In order to determine the activation status of the isoform2 of AS160 the In-cell western blot technique was used. This method allows the detection of specific proteins directly in 96 well plates without preparation of cell extracts. The specific antibody used in this assay recognizes the phosphorylated Thr 642 phosphorylation site of AS160 and AS160-like protein.
(§2) For this, cells were seeded into 96-well plates (black, Nunc) and grown for 48 hours. Cells were starved for 3-4 hours with MEMα (PAN) containing 2% horse serum (Cambrex). After removal of medium cells were fixed in 3.7% freshly prepared para-formaldehyde (Sigma) for 20 minutes. Cells were permeabilized with PBS+0.1% Triton-X-100. Blocking was performed with Odyssey blocking buffer (Licor) overnight at 4° C. Primary antibodies were incubated for 2 hours at room temperature. The anti-phosphoAKT (Ser 473, Cat No.: 44-621 G) and the anti-phosphoAS160 (Thr 642, Cat No.: 44-1071 G) were from Biosource. After incubation of the primary antibody, cells were washed with PBS+0.1% Tween20. The secondary anti-rabbit-IgG-800-CW antibody (Rockland Cat No.: 611-131-122) was incubated for 1 hour. For detection of DNA TO-PRO3 dye (Molecular Probes, Cat No.: T3605) was used. Fluorescence signals (FIG. 6) are presented as relative units (RU).

AKT (Ser 473) [4] = assay: In-cell western, phospho-AKT
Text: as §1, §2

GLUT4 = GLUT4 translocation, laser-scanning fluorescence microplate cytometry (ACUMEN)
Experimental: For this purpose, a technique suitable for screening of compounds was applied. Laser-scanning fluorescence microplate cytometry (ACUMEN technique, LIT) allows the distinct multiparametric analysis of single fluorescent cells in microplates (Bowen and Wylie, 2006). For laser-scanning fluorescence microplate cytometer (Acumen) cells were plated in 96 well plates (Biocat, black). Serum-starved cells were treated as indicated. Briefly, cells were fixed in 3.75% para-formaldehyde (Sigma) for 20 minutes. Subsequently, quenching occurred with […] NH4Cl. Cells were blocked with an adequate blocking solutions for a minimum of 1 hour. Primary antibody (monoclonal anti-myc 9E10, Santa Cruz, sc-40) was incubated for 1 hour. The secondary goat-anti mouse IgG (Alexa Fluor 488, Molecular Probes) was incubated in the presence of Sytox-orange for 1 hour (Bowen and Wylie, 2006).
Based on this highly sensitive procedure it is possible to screen various cell numbers for plasma-membrane based GLUT4-myc-display. Cells were counter-stained with a DNA dye (SytoxOrange) to confirm equal cell numbers.

GLUT4-myc = assay: Immunofluorescence localization of GLUT4-myc; conditions: insulin 100 nM, 20 minutes; L6-GLUT4-myc-tetR-AS160-like
Experimental: Cells were grown on sterile cover slides in 12 well plates. Expression of isoform2 of AS160 was induced with doxycyclin treatment for 48 hours. Serum-starved cells were treated with 100 nM insulin for 20 minutes or were left untreated. After stimulation, cells were fixed in 3.75% para-formaldehyde (Sigma) for 20 minutes. Subsequently, cells were permeabilised with 0.1% TritonX100 in PBS (Icon Biomedicals) or left unpermeabilised (as indicated) for 5 minutes at room temperature. The permeabilisation procedure allows the detection of intracellular localized compartments. Membrane-bound proteins are visualized without permeabilising the cells. Blocking of cells occurred for a minimum of 1 hour in PBS+1% BSA (USB). Primary antibodies (monoclonal anti-myc, Santa Cruz, sc-40 and polyclonal anti-AS160 Upstate) were incubated overnight. The secondary antibodies used are anti-rabbit Alexa488 to detect isoform2 of AS160 and anti-mouse A546 to detect GLUT4-myc. Incubation occurred is for 1 hour (dark). Cells were mounted in 15 μl Dako Cytomation Fluorescent Mounting Medium (DakoCytomation), examined by confocal laser-scanning microscopy with Leica DM IRE2 and analyzed with Leica DM SDK software.

[5] = without expression of isoform 2 of AS160
[6] = metformin 800 μM overnight, normal and insulin-resistant conditions
[7] = high glucose plus insulin conditions
[8] = high glucose plus insulin overnight (25 mM glucose+10 nM insulin)
[9] = with doxycyclin-induced expression of isoform 2 of AS160

Compound: 1 L-6-hydroxymethyl-chiro-inositol 2-(R)-2-O-methyl-3-O-octadecylcarbonate [AKT inhibitor Calb., reference compound]
- effect on insulin-stimulated phosphorylation of AKT (Ser 473) (AKT (Ser 473) [1]; pre-incubation 1 hour (wortmannin 200 nM, AKT inhibitor Calb. 50 μM), then insulin 10 nM 20 minutes): no effect

Compound: NC(=O)c1ncn([C@@H]2O[C@H](CO)[C@@H](O)[C@H]2O)c1N [AICAR, 5-Aminoimidazole-4-carboxaide 1-beta-D-ribofuranoside, reference compound]
- effect of expression of isoform 2 of AS160 on stimulated glucose uptake (L6-GLUT4myc cells [2]; with vs without isoform 2 of AS160): no additional effect
- uptake of glucose (2-deoxyglucose), fold increase after stimulation (L6-GLUT4myc cells [2]; [5]): 1.5 fold

Compound: N#CC(=C(/N)Sc1ccccc1N)/C(C#N)=C(\N)Sc1ccccc1N [U0126, reference compound]
- effect on uptake of glucose (L6-GLUT4myc cells [2]; U0126 10 μM, 20 μM, additional stimulation with 5 nM insulin, mainly in cells expressing isoform2 of AS160): significantly improved uptake of glucose

Compound: C[C@H]1c2cccc(O)c2C(O)=C2C(=O)[C@]3(O)C(O)=C(C(N)=O)C(=O)[C@@H](N(C)C)[C@@H]3[C@@H](O)[C@@H]21 [doxycyclin, reference compound]
- increase of glucose uptake induced by doxycyclin (L6-GLUT4myc cells [2]; doxycyclin 48 hours, insulin 20 minutes, correlated with isoform2 of AS160 protein levels): dose-dependent manner
- increase of the number of GFP expressing cells (L6-GLUT4myc cells [3]): about 10 fold

Compound: CN(C)C(=N)N=C(N)N [metformin, dimethylbiguanide, reference compound]
- effect on activation of AS160 (AS160 (Thr 642); [6]): no effect
- effect on activation of AKT (AKT (Ser 473) [4]; [6]): no effect

Compound: insulin
- phosphorylation of AKT (Ser 473) (AKT (Ser 473) [1]; insulin 5 nM to 50 nM, 20 minutes): induced the phosphorylation of AKT (Ser 473)
- AS160 phosphorylation signal compared to untreated conditions (normal Glc) (AS160 (Thr 642); [7]): 72%
- AS160 (Thr 642) phosphorylation under insulin-resistant conditions (AS160 (Thr 642); [8]): dose-dependent manner
- phosphorylation of full-length or isoform2 of AS160 (Thr 642) (AS160 (Thr 642); normal conditions, doxycyclin-induced cells, insulin 20 minutes): dose-dependent manner
- increased translocation of GLUT4 to the plasma membrane (GLUT4; 100 nM insulin 20 minutes, doxycyclin-induced expression of AS160-like protein): ~15%
- GLUT4 translocation (GLUT4; 100 nM insulin alone (no AS160-like expression)): slightly induced
- localization of GLUT4-myc (GLUT4-myc): induces the translocation of GLUT4-myc to the plasma membrane
- time at which the maximum of glucose uptake is observed (L6-GLUT4myc cells [2]; 50 nM insulin, time points 5, 15, 30 minutes): ≤ 5 min
- uptake of glucose (2-deoxyglucose), fold increase after stimulation (L6-GLUT4myc cells [2]; [9]): up to 4 fold
- AKT phosphorylation signal compared to untreated conditions (normal Glc) (AKT (Ser 473) [4]; [7]): 72%
- AKT (Ser 473) phosphorylation under insulin-resistant conditions (AKT (Ser 473) [4]; [8]): dose-dependent manner
- AKT phosphorylation (Ser 473) (AKT (Ser 473) [4]; normal conditions, insulin 20 minutes): dose-dependent manner

Compound: insulin like growth factor-1 [IGF-1]
- uptake of glucose (2-deoxyglucose), fold increase after stimulation (L6-GLUT4myc cells [2]; [9]): up to 5 fold
- uptake of glucose (2-deoxyglucose), fold increase after stimulation (L6-GLUT4myc cells [2]; [5]): 3 fold
